Assay [1] relates to INS-1E β-cells. As to the kind of experiment: In vitro INS-1E β-cell assay (apoptosis, caspase 3/7). Format: cell-based. The note with it: apoptosis promoted by high (11 mM) glucose and high (0.4 mM) palmitate. As to the method: INS-1E β-cells were cultivated in the presence of a high glucose concentration (11 mM) and a high palmitate concentration (0.4 mM bound to BSA 0.5%) in order to promote glucotoxicity and lipotoxicity. […] The capacity of protecting β-cells with different combinations of antioxydants and anti-inflammatory agents were tested using these stressing conditions that reflect the pathophysiological conditions implicated in pancreatic dysfunction related to diabetes onset. INS-1E cells were seeded at a density of 80,000 cells/cm^2 in 96 wells plates 4 days before the beginning of the treatment. At 60-80% of confluence, cells were fasted with RPMI 5 mM of glucose+FBS 10%. […] The day after, fasting medium was changed by the stressing medium (glucose […]+palmitate 0.4 mM bound to BSA 0.5%). Medium, and tested agents when present, were changed every 24 h. 48 h after the addition of the stressing medium, apoptosis was measured with Apo-One Homogeneous Caspase 3/7 Assay (Promega) which determines the activity of caspase 3 and 7. […] Resulting fluorescence was read at 485/530 (excitation/emission wave length). The background apoptosis, in absence of stressing condition, was determined with INS 1E-cells cultured in the presence of fasting medium (RPMI 5 mM glucose+FBS 10%). […]

The test system of assay [2] is type II diabetes patients. To be noted: cited from earlier work.
The test system of assay [3] is islets. The note with it: low-dose streptozotocin-induced insulitis; cited from earlier work.
Assay [4] concerns alloxan-treated cd-1 mice. As to the kind of experiment: Alloxan induced beta cell destruction model (in vivo β-cell protection). The protocol:
In Vivo β-Cell Protection Model β-cell destruction was induced in cd-1 male mice after 3 hours of fasting by a single intra-peritoneal (i.p.) injection of a freshly prepared solution of alloxan 200 mg/kg (Sigma-Aldrich, San Luis, Mo.) that was dissolved in NaCl 0.9%. One single intra-peritoneal drug administration was given one hour before the Alloxan administration. […] At the end of the treatment, day 4, animals were sacrificed and the plasma collected and kept at −20° C. until used.
Pancreatic beta cell destruction was induced in the cd-1 mice after 3 hours of fasting by a single intraperitoneal injection of a freshly prepared solution of alloxan 200 mg/kg (Sigma-Aldrich, San Luis, Mo.) that was dissolved in NaCl 0.9%. Single drug intraperitoneal administration was 1 hour before the alloxan administration. […] The control group was injected with the vehicle, PBS at pH 7.4. Glycemia was measured on arterio-venous blood collected from the tail vessels between 9:00 and 10:00 am on day 0 (day of drug administration) to day 4.

[5] abbreviates: type II diabetes patients, 4 grams/day.

Structures are written as SMILES.

As to `Cc1c(C)c2c(c(C)c1O)CC[C@@](C)(CCC[C@H](C)CCC[C@H](C)CCCC(C)C)O2` [α-tocopherol], the “Combination concentrations (concentrations that reduced apoptosis)” value in assay [1] was 1 mM. In the case of `CC(=O)Oc1ccccc1C(=O)O` [aspirin], the glucose levels entry in assay [2] (patients with diabetes, high dosage) is on record as “lower”.

As to `NC(=O)c1cccnc1` [nicotinamide], in assay [3], the “protection of islets from immune destruction” value (shortened to “protection of islets”) is on record as “partially protect”.

For the compound `O=C([O-])c1ccccc1O.[Na+]` [Salicylate, Sodium Salicylate], the glycemia entry was “significant reductions of glycemia were observed only at the highest administered concentrations” in assay [4] (FIG. 3, salicylate alone i.p. 0.38, 0.75 and 1.5 mmol/kg); “not to affect glycemia” in assay [4] (sodium salicylate alone 0.38 mmol/kg i.p.); “statistically-significant reductions in glycemia” in assay [4] (sodium salicylate alone 0.75 mmol/kg). Consider `NCCS(=O)(=O)O` [Taurine], for which, in assay [1], the “Combination concentrations (concentrations that reduced apoptosis)” value was determined as 3 mM.

Regarding `O=C(Oc1ccccc1C(=O)O)c1ccccc1O` [salsalate], in assay [2] (setting [5]), the fasting glucose entry is on record as “lowered” and the inflammation result is listed as “reduced”.

For `CC(=O)N[C@@H](CS)C(=O)O` [N-acetylcysteine], the glycemia entry is “significant reductions of glycemia were observed only at the highest administered concentrations” in assay [4] (FIG. 3, NAC alone i.p. 0.38 and 0.75 mmol/kg); “not to affect glycemia” in assay [4] (NAC alone 0.19 mmol/kg i.p.); “statistically-significant reductions in glycemia” in assay [4] (NAC alone 0.38 mmol/kg). Further, the insulinemia entry in assay [4] (FIG. 3, NAC alone i.p., highest concentrations administered) is reported as “significantly increased”. The “protection of islets” value in assay [3] is “partially protect”. As to `CC(=O)N(O)CCCCCNC(=O)CCC(=O)N(O)CCCCCNC(=O)CCC(=O)N(O)CCCCCN` [desferrioxamine], in assay [3], the “protection of islets” value was “partially protect”.

(Values after patent US20140357602A1, “Combination Therapies For Treating Metabolic Disorders” (Genmedica Therapeutics SL, priority 2009, published 2014).)
